# Key:
# [1] = tested on: alkaline phosphatase (ALP); assay: cells; conditions: Mus musculus, C2C12, 96 h
# Excerpt: (§1) To identify small-molecule activators of osteoblast differentiation, we measured ALP activity using a fluorescent emission assay as a reporter for enzymatic digestion of ALP substrate in lysates derived from C2C12 myoblasts. […] Therefore, before screening, the assay was calibrated using recombinant human BMP4 protein as a positive control. Compounds were robotically deposited onto 384-well plates and then overlaid by C2C12 cells for a 4-day culture period, followed by lysis and fluorescent substrate assays (FIG. 1A; Table 1). To ensure uniformity, C2C12 cells were maintained in normal culture medium containing 10% fetal bovine serum, and lysis and substrate addition achieved using a microplate multidrop device. The primary screen (Table 2) encompassed greater than 47,000 small molecules tested at a final concentration of 10 μM.
# (§2) For the primary screen, library compounds were distributed onto 384-well microplates (Greiner Bio-One 781091) at a final concentration of 10 μM in culture medium using a Perkin Elmer Janus automated workstation and WinPrep Version 4.8.3.315. Positive (rhBMP4, 1 ng/ml, R&D Systems) and negative controls (DMSO, 0.2%) were manually added to each plate by multichannel pipet. C2C12 cells were seeded onto compounds and controls at a density of 2000/well using a Thermo Multidrop Combi reagent dispenser and cultured for 4 days at 37° C., 5% CO2. Culture medium was aspirated using a BioTek EL406 plate washer and cells were lysed in RIPA buffer (Millipore 20-188) at ambient temperature for 10 minutes. 10 μl fluorescent alkaline phosphatase substrate (AttoPhos, Promega S1000) was added to lysates and incubated an additional 10 minutes before measuring the fluorescence (Excitation 450 nm/Emission 580 nm) on a BioTek Synergy Neo2 stacking microplate reader. Plates were processed and relative fluorescence raw values measured in stacks of 10-20. The data were processed using Collaborative Drug Discovery web-based software (CDD Vault) to determine Z score calculated on DMSO control wells and percent activation normalized against positive and negative controls (NPA). Cherry-picked hit candidates were re-tested in concentration response experiments, from which 4 candidates were chosen and purchased for further testing from either ChemBridge or Enamine, based on availability.
# (§3) We also purchased a library of 154 structural chemical analogs assembled by ChemBridge Corp. from available screening library compounds.
# [2] = tested on: alkaline phosphatase (ALP); conditions: 154-analog library, 10 μM, C2C12, duplicate
# Excerpt: as §1, §2, §3
Compound,activation at 10 µM [1],RFU Score (10 μM) [2]
Cc1cc(C)c2[nH]c(=O)c(CN3CCCC(CS(C)(=O)=O)C3)cc2c1 (stereo not drawn) [RU-0424457],0.13%,285
Cc1cc(C)c2[nH]c(=O)c(CN3CCCC(N4CCCC4=O)C3)cc2c1 (stereo not drawn) [RU-0424458],0.87%,306
Cc1cc(C)c2[nH]c(=O)c(CN(C)Cc3noc(C4CC4)n3)cc2c1 [RU-0424459],3.58%,383
O=C(c1[nH]cnc1-c1ccccc1)N1CCC(O)(CO)CC1 [RU-0424460],5.19%,429
Cc1cc(C)c2[nH]c(=O)c(-c3nccn3[C@@H]3CS(=O)(=O)C[C@H]3O)cc2c1 [RU-0424461],4.15%,399
Cc1cc(C)c2[nH]c(=O)c(C3CC(=O)NCc4nc5ccccn5c43)cc2c1 (stereo not drawn) [RU-0424462],7.81%,503
CC1(C2CCN(C(=O)c3[nH]cnc3-c3ccccc3)CC2)NC(=O)NC1=O (stereo not drawn) [RU-0424463],4.96%,422
CCCN(Cc1nccn1C)C(=O)c1[nH]cnc1-c1ccccc1 [RU-0424464],1.72%,330
Cc1cc(C)c2[nH]c(=O)c(-c3nccn3Cc3ccccn3)cc2c1 [RU-0424465],5.14%,427
Cn1cnnc1Sc1ccc(-c2[nH]cnc2-c2ccccc2)o1 [RU-0424466],8.64%,527
CO[C@H]1CN(C(=O)c2[nH]cnc2-c2ccccc2)CC[C@H]1N [RU-0424467],7.99%,508
COc1ncccc1-n1ccnc1-c1cc2cc(C)cc(C)c2[nH]c1=O [RU-0424468],7.97%,508
Cc1cc(C)c2[nH]c(=O)c(CN(C)Cc3cc(-c4cccnc4)no3)cc2c1 [RU-0424469],8.96%,536
O=C1OCC2(CCN(C(=O)c3[nH]cnc3-c3ccccc3)CC2)O1 [RU-0424470],7.58%,497
Cc1cc(C)c2[nH]c(=O)c(CN3CCCC4(C3)CN(C)C(=O)O4)cc2c1 (stereo not drawn) [RU-0424471],8.55%,524
COc1ccccc1N1CCN(C(=O)c2[nH]cnc2-c2ccccc2)CC1=O [RU-0424472],4.08%,397
CCNC(=O)[C@@H]1CCCN1Cc1cc2cc(C)cc(C)c2[nH]c1=O [RU-0424473],6.63%,470
Cc1cc(C)c2[nH]c(=O)c(C3c4nc[nH]c4CCN3Cc3ccco3)cc2c1 (stereo not drawn) [RU-0424474],10%,566
O=C(Nc1cnc2n1CCCC2)c1[nH]cnc1-c1ccccc1 [RU-0424475],6.39%,491
Cc1cc(C)c2[nH]c(=O)c(CN3C[C@H]4CC[C@@H](C3)N(C)C4=O)cc2c1 [RU-0424476],8.41%,520
CN(C)C1CCN(C(=O)c2cccc(-c3[nH]cnc3-c3ccccc3)c2)C1 (stereo not drawn) [RU-0424477],6.59%,469
CCC(C)Sc1ccc(-c2[nH]cnc2-c2ccccc2)cn1 (stereo not drawn) [RU-0424478],2.79%,361

Compound,activation at 10 µM [1],RFU Score (10 μM) [2]
CCN(CCN(C)C)C(=O)c1cccc(-c2[nH]cnc2-c2ccccc2)c1 [RU-0424479],8.57%,525
CC(C)(O)C#Cc1ccc(-c2[nH]cnc2-c2ccccc2)cc1 [RU-0424480],10.4%,575
O=C(O)Cc1cc(C2CCN(C(=O)c3[nH]cnc3-c3ccccc3)CC2)[nH]n1 [RU-0424481],8.62%,526
COc1cccc(-c2[nH]cnc2-c2ccccc2)c1OCCCn1ccnc1 [RU-0424482],10.1%,567
CO[C@@H]1CCOC[C@H]1NC(=O)c1[nH]cnc1-c1ccccc1 [RU-0424483],7.37%,491
Cc1nc(C2CCCN(C(=O)c3[nH]cnc3-c3ccccc3)C2)no1 (stereo not drawn) [RU-0424484],1.72%,330
CCc1cn[nH]c1C1CCN(C(=O)c2[nH]cnc2-c2ccccc2)CC1 [RU-0424485],8.24%,515
O=C(O)C1CN(C(=O)c2[nH]cnc2-c2ccccc2)CCN1 (stereo not drawn) [RU-0424486],5.51%,438
Cc1cc(C)c2[nH]c(=O)c(CN(Cc3cccnc3)C3CC3)cc2c1 [RU-0424487],7.72%,501
Cc1cc(C)c2[nH]c(=O)c(CN3CCc4[nH]cnc4C3C(=O)O)cc2c1 (stereo not drawn) [RU-0424488],6.37%,462
O=C(c1[nH]cnc1-c1ccccc1)N1CCC(Cc2cccnc2)CC1 [RU-0424489],9.48%,551
O=C(N[C@H]1CC[C@H]1NC1CCOCC1)c1[nH]cnc1-c1ccccc1 [RU-0424490],5.91%,449
Cc1cc(C)c2[nH]c(=O)c(CN3C[C@@H]4CCN(C)[C@@H]4C3)cc2c1 [RU-0424491],7.63%,498
Cc1cc(C)c2[nH]c(=O)c(-c3nccn3CCSc3cnn[nH]3)cc2c1 [RU-0424492],6.11%,455
CC1(C#N)CCN(C(=O)c2ccc(-c3[nH]cnc3-c3ccccc3)cc2)CC1 [RU-0424493],9.53%,551
COCC1(N(C)C(=O)c2ccc(-c3[nH]cnc3-c3ccccc3)cc2)CC1 [RU-0424494],7.74%,501
Cc1cc(C)c2[nH]c(=O)c(CN3[C@@H]4CC[C@H]3C[C@@H](O)C4)cc2c1 [RU-0424495],7.21%,486
Cc1ccnc(CC(C)N(C)Cc2cc3cc(C)cc(C)c3[nH]c2=O)c1 (stereo not drawn) [RU-0424496],8.27%,516
O=C(O)CNc1cc(-c2[nH]cnc2-c2ccccc2)c2cc[nH]c2n1 [RU-0424497],5.93%,450
Cc1cc(C)c2[nH]c(=O)c(CN(C)CCn3ccnc3C)cc2c1 [RU-0424498],7.21%,486
Cc1cc(C)c2[nH]c(=O)c(CN3CC(c4ccccn4)C3)cc2c1 [RU-0424499],7.62%,498
Cc1cc(C)c2[nH]c(=O)c(CN3CCC(O)(CN(C)C)C3)cc2c1 (stereo not drawn) [RU-0424500],8.52%,523

Compound,activation at 10 µM [1],RFU Score (10 μM) [2]
Cc1cc(C)c2[nH]c(=O)c(CN3C[C@H](O)C[C@H]3C(=O)O)cc2c1 [RU-0424501],7.25%,487
COCCCN1CCN(Cc2cc3cc(C)cc(C)c3[nH]c2=O)CC1 [RU-0424502],7.78%,502
CO[C@@H]1CC[C@@]2(OC)CCN(C(=O)c3[nH]cnc3-c3ccccc3)[C@H]2C1 [RU-0424503],5.45%,436
N#Cc1ccccc1-c1ccc(-c2[nH]cnc2-c2ccccc2)o1 [RU-0424504],0.96%,309
O=C(c1[nH]cnc1-c1ccccc1)N1CCc2onc(-c3cccc(F)c3)c2C1 [RU-0424505],1.56%,326
Cc1cc(C)c2[nH]c(=O)c(CN3CCCC(N(C)C)CC3)cc2c1 (stereo not drawn) [RU-0424506],2.9%,364
O=C(c1[nH]cnc1-c1ccccc1)N1CCC2(CCCO2)CC1 [RU-0424507],2.99%,366
Cc1cc(C)c2[nH]c(=O)c(CN(C)C(C)C(=O)N(C)C)cc2c1 (stereo not drawn) [RU-0424508],7.85%,504
Cc1cc(C)c2[nH]c(=O)c(CN(C)CCCn3cccn3)cc2c1 [RU-0424509],7.19%,486
Cc1cc(C)c2[nH]c(=O)c(CN(C)Cc3cnccn3)cc2c1 [RU-0424510],7.14%,484
Nc1nnc(C2CCN(C(=O)c3[nH]cnc3-c3ccccc3)CC2)[nH]1 [RU-0424511],6.54%,467
O=C(c1[nH]cnc1-c1ccccc1)N1CCOC(C(F)(F)F)C1 (stereo not drawn) [RU-0424512],6.12%,455
CO[C@@]12CC[C@H](O)C[C@@H]1N(C(=O)c1[nH]cnc1-c1ccccc1)CC2 [RU-0424513],5.42%,435
CCCn1cc(NC(=O)Cn2cc(-c3[nH]cnc3-c3ccccc3)cn2)nn1 [RU-0424514],3.69%,386
Cc1cc(C)c2[nH]c(=O)c(CN(C)CCc3cnn(C)c3)cc2c1 [RU-0424515],1.16%,314
O=C(c1[nH]cnc1-c1ccccc1)N1CCCC(c2ccncn2)C1 (stereo not drawn) [RU-0424516],3.89%,392
CNC(=O)[C@@H]1C[C@H](N)CN1Cc1cc2cc(C)cc(C)c2[nH]c1=O [RU-0424517],8.64%,527
Cc1cc(C)c2[nH]c(=O)c(-c3nccn3Cc3ccco3)cc2c1 [RU-0424518],7.14%,484
O=C(NCc1nc(-c2cnccn2)n[nH]1)c1[nH]cnc1-c1ccccc1 [RU-0424519],9.84%,561
CNC(=O)CC1C(=O)NCCN1Cc1cc2cc(C)cc(C)c2[nH]c1=O (stereo not drawn) [RU-0424520],8.81%,532
Cc1noc(C(C)N(C)C(=O)c2[nH]cnc2-c2ccccc2)n1 (stereo not drawn) [RU-0424521],11.3%,604
CO[C@H]1CC[C@@]2(OC)CCN(C(=O)c3[nH]cnc3-c3ccccc3)[C@H]2C1 [RU-0424522],6.21%,458

# From patent US11478466B2, “Small molecule promoting osteoblast differentiation” (Cornell University, priority 2019, dated 2022)
